ChEMBL document CHEMBL1800055, “Orally active MMP-1 sparing α-tetrahydropyranyl and α-piperidinyl sulfone matrix metalloproteinase (MMP) inhibitors with efficacy in cancer, arthritis, and cardiovascular disease” (J Med Chem, 2010)

Columns and labels:
[1] = Tmax in female mouse at 20 mg/kg, po after 24 hrs; format: ADME, organism-based; design: dose 20 mg/kg, route oral; conditions: in vivo
[2] = AUC (0 to infinity) in cynomolgus monkey at 20 mg/kg, po after 24 hrs; format: ADME, organism-based, Macaca fascicularis; design: dose 20 mg/kg, route oral, time infinity; conditions: plasma
[3] = Oral bioavailability in male rat at 20 mg/kg after 24 hrs; format: ADME, organism-based; conditions: in vivo
[4] = Oral bioavailability in female rat at 20 mg/kg after 24 hrs; format: ADME, organism-based; conditions: in vivo
[5] = target: 72 kDa type IV collagenase (Homo sapiens, UniProt P08253)
[6] = Tmax in male mouse at 20 mg/kg, po after 24 hrs; format: ADME, organism-based; design: dose 20 mg/kg, route oral; conditions: in vivo
[7] = AUC (0 to infinity) in female dog at 20 mg/kg, po after 24 hrs; format: ADME, organism-based, Canis lupus familiaris; design: time infinity, dose 20 mg/kg, route oral; conditions: plasma
Neutrophil collagenase = Neutrophil collagenase (Homo sapiens, UniProt P22894)
Rattus norvegicus [8] = test: Cardioprotective activity in rat myocardial infarction model assessed inhibition of left ventricular dilation at 10 mg/kg, po qd for 4 weeks (reference value: 0.59 +/- 0.02 mL); format: functional, Heart left ventricle
[9] = AUC (0 to infinity) in male dog at 20 mg/kg, po after 24 hrs; format: ADME, organism-based, Canis lupus familiaris; design: time infinity, dose 20 mg/kg, route oral; conditions: plasma
[10] = AUC (0 to infinity) in female rat at 20 mg/kg, po after 24 hrs; format: ADME, organism-based; design: time infinity, dose 20 mg/kg, route oral; conditions: plasma
[11] = AUC (0 to infinity) in female mouse at 20 mg/kg, po after 24 hrs; format: ADME, organism-based; design: time infinity, dose 20 mg/kg, route oral; conditions: plasma
[12] = Cmax in male rat at 20 mg/kg, po after 24 hrs; format: ADME, organism-based; design: dose 20 mg/kg, route oral; conditions: in vivo
Stromelysin-1 = Stromelysin-1 (Homo sapiens, UniProt P08254)
[13] = Cmax in cynomolgus monkey at 20 mg/kg, po after 24 hrs; format: ADME, organism-based, Macaca fascicularis; design: dose 20 mg/kg, route oral; conditions: in vivo
[14] = Tmax in female rat at 20 mg/kg, po after 24 hrs; format: ADME, organism-based; design: dose 20 mg/kg, route oral; conditions: in vivo
[15] = Tmax in male rat at 20 mg/kg, po after 24 hrs; format: ADME, organism-based; design: dose 20 mg/kg, route oral; conditions: in vivo
Collagenase 3 = Collagenase 3 (Homo sapiens, UniProt P45452)
[16] = Cmax in female mouse at 20 mg/kg, po after 24 hrs; format: ADME, organism-based; design: dose 20 mg/kg, route oral; conditions: in vivo
[17] = Tmax in female dog at 20 mg/kg, po after 24 hrs; format: ADME, organism-based, Canis lupus familiaris; design: dose 20 mg/kg, route oral; conditions: in vivo
[18] = Half life in rat at 20 mg/kg, po; format: ADME, organism-based; design: dose 20 mg/kg, route oral; conditions: in vivo
[19] = AUC (0 to infinity) in male rat at 20 mg/kg, po after 24 hrs; format: ADME, organism-based; design: time infinity, dose 20 mg/kg, route oral; conditions: plasma
[20] = Tmax in cynomolgus monkey at 20 mg/kg, po after 24 hrs; format: ADME, organism-based, Macaca fascicularis; design: dose 20 mg/kg, route oral; conditions: in vivo
Interstitial collagenase = target: T1, Interstitial collagenase (Homo sapiens, UniProt P03956); format: cell-based, HT-1080
T1 sequence (P03956 whole entry): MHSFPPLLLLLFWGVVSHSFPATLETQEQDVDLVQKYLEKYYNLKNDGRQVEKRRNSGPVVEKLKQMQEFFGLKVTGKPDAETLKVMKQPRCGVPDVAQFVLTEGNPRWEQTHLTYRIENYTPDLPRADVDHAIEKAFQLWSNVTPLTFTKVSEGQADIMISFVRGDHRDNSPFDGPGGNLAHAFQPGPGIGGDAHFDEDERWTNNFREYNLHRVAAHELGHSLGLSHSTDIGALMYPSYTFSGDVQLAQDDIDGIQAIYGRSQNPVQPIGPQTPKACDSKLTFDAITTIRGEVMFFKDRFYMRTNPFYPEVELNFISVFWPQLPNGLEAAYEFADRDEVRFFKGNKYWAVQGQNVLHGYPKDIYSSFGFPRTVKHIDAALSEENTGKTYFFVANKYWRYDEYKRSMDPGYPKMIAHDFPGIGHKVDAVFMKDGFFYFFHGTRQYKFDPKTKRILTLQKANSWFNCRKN

[21] = Cmax in female dog at 20 mg/kg, po after 24 hrs; format: ADME, organism-based, Canis lupus familiaris; design: dose 20 mg/kg, route oral; conditions: in vivo
[22] = Oral bioavailability in rat at 20 mg/kg; format: ADME, organism-based; conditions: in vivo
[23] = Cmax in female rat at 20 mg/kg, po after 24 hrs; format: ADME, organism-based; design: dose 20 mg/kg, route oral; conditions: in vivo
[24] = Oral bioavailability in male dog at 20 mg/kg after 24 hrs; format: ADME, organism-based, Canis lupus familiaris; conditions: in vivo
Matrilysin = target: T2, Matrilysin (Homo sapiens, UniProt P09237)
T2 sequence (P09237 whole entry): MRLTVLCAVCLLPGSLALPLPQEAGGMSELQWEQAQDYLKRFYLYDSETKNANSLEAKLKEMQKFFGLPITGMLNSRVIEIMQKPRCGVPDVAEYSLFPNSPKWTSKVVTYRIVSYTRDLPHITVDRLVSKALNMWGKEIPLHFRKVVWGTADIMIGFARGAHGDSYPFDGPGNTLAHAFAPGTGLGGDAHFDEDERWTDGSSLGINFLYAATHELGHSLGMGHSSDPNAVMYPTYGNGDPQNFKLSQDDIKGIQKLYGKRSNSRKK

Rattus norvegicus [25] = test: Plasma concentration in rat at 20 mg/kg, po; format: ADME, organism-based; design: dose 20 mg/kg, route oral; conditions: in vivo
[26] = Oral bioavailability in female mouse at 20 mg/kg after 24 hrs; format: ADME, organism-based; conditions: in vivo
[27] = Oral bioavailability in female dog at 20 mg/kg after 24 hrs; format: ADME, organism-based, Canis lupus familiaris; conditions: in vivo
[28] = Cmax in rat at 20 mg/kg, po; format: ADME, organism-based; design: dose 20 mg/kg, route oral; conditions: in vivo
PC-3 = test: Antitumor activity against human PC3 cells xenografted in po dosed BALB/c nu/nu mouse assessed as tumor growth inhibition administered BID measured on 25 to 30 days; format: functional, organism-based
[29] = Tmax in male dog at 20 mg/kg, po after 24 hrs; format: ADME, organism-based, Canis lupus familiaris; design: dose 20 mg/kg, route oral; conditions: in vivo
[30] = Oral bioavailability in cynomolgus monkey at 20 mg/kg after 24 hrs; format: ADME, organism-based, Macaca fascicularis; conditions: in vivo
[31] = AUC (0 to infinity) in male mouse at 20 mg/kg, po after 24 hrs; format: ADME, organism-based; design: time infinity, dose 20 mg/kg, route oral; conditions: plasma
[32] = Oral bioavailability in male mouse at 20 mg/kg after 24 hrs; format: ADME, organism-based; conditions: in vivo
[33] = Cmax in male dog at 20 mg/kg, po after 24 hrs; format: ADME, organism-based, Canis lupus familiaris; design: dose 20 mg/kg, route oral; conditions: in vivo
Mus musculus = test: Antiangiogenic activity in cornea of mouse bFGF-induced corneal micropocket model assessed as inhibition of angiogenesis at 5 mg/kg administered as BID; format: functional
[34] = Cmax in male mouse at 20 mg/kg, po after 24 hrs; format: ADME, organism-based; design: dose 20 mg/kg, route oral; conditions: in vivo

Sequence of 72 kDa type IV collagenase (P08253 whole entry): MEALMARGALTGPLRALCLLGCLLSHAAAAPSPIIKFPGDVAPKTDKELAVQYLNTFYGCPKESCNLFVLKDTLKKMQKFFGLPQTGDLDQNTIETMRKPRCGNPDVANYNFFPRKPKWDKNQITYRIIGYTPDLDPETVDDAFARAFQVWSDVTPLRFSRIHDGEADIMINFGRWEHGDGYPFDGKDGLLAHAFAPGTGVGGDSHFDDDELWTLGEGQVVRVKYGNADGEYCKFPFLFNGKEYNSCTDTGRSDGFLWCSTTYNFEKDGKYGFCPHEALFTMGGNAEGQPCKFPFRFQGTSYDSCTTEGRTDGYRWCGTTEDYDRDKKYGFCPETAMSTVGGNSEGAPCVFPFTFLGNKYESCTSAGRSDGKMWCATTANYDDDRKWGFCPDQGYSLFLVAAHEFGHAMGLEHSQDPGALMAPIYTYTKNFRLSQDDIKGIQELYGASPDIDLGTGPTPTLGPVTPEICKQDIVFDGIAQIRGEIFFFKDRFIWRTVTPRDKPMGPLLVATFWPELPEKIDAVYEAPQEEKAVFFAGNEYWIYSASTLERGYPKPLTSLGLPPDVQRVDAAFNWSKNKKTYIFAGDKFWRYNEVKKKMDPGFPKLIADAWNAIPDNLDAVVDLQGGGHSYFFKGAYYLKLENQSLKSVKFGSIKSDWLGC
Sequence of Neutrophil collagenase (P22894 whole entry): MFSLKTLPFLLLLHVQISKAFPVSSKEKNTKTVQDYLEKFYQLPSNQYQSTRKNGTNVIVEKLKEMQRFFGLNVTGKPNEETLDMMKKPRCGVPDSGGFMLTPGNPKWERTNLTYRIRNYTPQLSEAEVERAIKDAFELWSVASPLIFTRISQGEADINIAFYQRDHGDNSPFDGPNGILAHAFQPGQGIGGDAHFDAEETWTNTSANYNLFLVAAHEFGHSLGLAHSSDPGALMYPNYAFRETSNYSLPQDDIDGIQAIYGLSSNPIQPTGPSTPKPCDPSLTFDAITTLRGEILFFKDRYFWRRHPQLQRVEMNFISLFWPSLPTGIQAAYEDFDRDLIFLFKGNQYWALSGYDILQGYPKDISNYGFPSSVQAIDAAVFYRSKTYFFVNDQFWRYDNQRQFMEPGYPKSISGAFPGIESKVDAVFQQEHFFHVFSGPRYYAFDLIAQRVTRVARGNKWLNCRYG
Sequence of Stromelysin-1 (P08254 whole entry): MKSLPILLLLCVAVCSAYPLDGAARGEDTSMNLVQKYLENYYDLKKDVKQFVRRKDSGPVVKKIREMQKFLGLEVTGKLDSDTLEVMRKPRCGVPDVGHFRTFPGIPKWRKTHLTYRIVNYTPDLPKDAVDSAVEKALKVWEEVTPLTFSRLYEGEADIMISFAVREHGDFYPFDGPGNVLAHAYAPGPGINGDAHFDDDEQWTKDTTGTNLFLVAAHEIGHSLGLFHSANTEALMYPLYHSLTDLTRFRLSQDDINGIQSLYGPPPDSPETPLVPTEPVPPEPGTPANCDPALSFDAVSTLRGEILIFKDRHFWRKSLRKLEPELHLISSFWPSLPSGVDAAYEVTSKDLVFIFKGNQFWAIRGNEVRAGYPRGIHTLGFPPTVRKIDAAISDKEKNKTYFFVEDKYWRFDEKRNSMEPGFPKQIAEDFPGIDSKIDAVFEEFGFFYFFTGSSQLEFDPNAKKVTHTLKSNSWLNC

Compound COCCN1CCC(C(=O)NO)(S(=O)(=O)c2ccc(Oc3ccc(OC(F)(F)F)cc3)cc2)CC1 has a Tmax [1] of 10 min, an AUC(0-inf) [2] of 191 µg·h/mL and a bioavailability [3] of 66.6%. The bioavailability [4] was 82.2%, the IC50 [5] was less than 0.1 nM and the Tmax [6] was 10 min. The AUC(0-inf) [7] was 156 µg·h/mL, the IC50 (Neutrophil collagenase) was 1.7 nM and the Activity (Rattus norvegicus [8]) was 0.51 mL. It also gave an AUC(0-inf) [9] of 228 µg·h/mL, an AUC(0-inf) [10] of 668 µg·h/mL and an AUC(0-inf) [11] of 36100 ng·h/mL. For the same compound, the Cmax [12] was 42400 ng/mL, the IC50 (Stromelysin-1) was 28.7 nM and the Cmax [13] was 37100 ng/mL. The Tmax [14] was 4 h, the Tmax [15] was 2 h and the IC50 (Collagenase 3) was less than 0.1 nM. It also gave a Cmax [16] of 41000 ng/mL, a Tmax [17] of 30 min and a half-life [18] of 176 min. For the same compound, the AUC(0-inf) [19] was 273 µg·h/mL, the Tmax [20] was 1.67 h and the IC50 (Interstitial collagenase) was greater than 10 µM. It also gave a Cmax [21] of 68.9 µg/mL, a bioavailability [22] of 67.9% and a Cmax [23] of 69.8 µg/mL. It also gave a bioavailability [24] of 64%, an IC50 (Matrilysin) of 7 µM and a Cp (Rattus norvegicus [25]) of 20521 ng/mL. It also gave a bioavailability [26] of 80.8%, a bioavailability [27] of 69.2% and a Cmax [28] of 29600 ng/mL. For the same compound, the inhibition (PC-3) was “Dose-dependent effect”, the Tmax [29] was 50 min and the bioavailability [30] was 53.8%. For the same compound, the AUC(0-inf) [31] was 29300 ng·h/mL, the bioavailability [32] was 51.7% and the Cmax [33] was 60.6 µg/mL. For the same compound, the inhibition in vivo at 5 mg/kg (Mus musculus) was 60% and the Cmax [34] was 26600 ng/mL.
